Data set [1] deals with osteopontin. The data set can be described thus: Western blot of osteopontin expression after exposure to ASOs. The following applies: for osteopontin expression in relation to untreated control (100%): MDA-MB231, lipofectamine, 10 μM; for reduction of osteopontin expression: MDA-MB-231. It counts as cell-based, human. For orientation: A western blot detects proteins with antibodies after separation by electrophoresis.

The subject of data set [2] is bone sialoprotein II. Description: Western blot of bone sialoprotein II expression after exposure to ASOs. To be noted: for bone sialoprotein II expression in relation to untreated control (100%): 10 μM. In kind it is cell-based, human.

For the substance “5′-CTAACTTAAAAAACAAAAGA-3′ (antisense CTAACTTAAAAAACAAAAGA; all phosphorothioate, sugars by position and methylation of C not given here) [ASO-OPN-4]”, the results for the “osteopontin expression in relation to untreated control (100%)” value in data set [1] (single exposure) and in data set [1] (twofold exposure) were 16% and 23%, respectively. The “reduction of osteopontin expression” value is listed as 77% in data set [1] (repeated ASO exposure) and 84% in data set [1] (single exposure). For the same substance, the “maximum inhibition of protein expression / suppression of protein level (OPN)” value in data set [1] (MDA-MB-231 cells, Western blot) is recorded as 85%.

As for “5′-GCT-TTC-TTC-GTT-TTC-ATT-TC-3′ [ASO-BSPII-6]”, the “bone sialoprotein II expression in relation to untreated control (100%)” value was found to be 16% in data set [2] (MDA-MB231, single exposure, electroporation); 33% in data set [2] (MDA-MB231, single exposure, lipofectamine); 15% in data set [2] (MDA-MB231, twofold exposure, lipofectamine); 79% in data set [2] (MDA-MB231^F (growing without FBS), single exposure, lipofectamine); 0% in data set [2] (MDA-MB435s, single exposure, lipofectamine). Moreover, the “maximum inhibition of protein expression / suppression of protein level (BSP II)” value in data set [2] (MDA-MB-231 cells, Western blot) is recorded as 75%. Moreover, in data set [2] (single exposure), the “reduction of bone sialoprotein expression” value came to 84%. Besides, in data set [2] (twofold exposure), the “reduction of bone sialoprotein protein level” value is reported as 81%.

The values are drawn from patent US20090017103A1, “Antisense oligonucleotides for prevention of metastasis formation of cancer cells” (priority 2003, published 2009).
